{"source": "PubChem BioAssay AID1259407", "about": "(Chemical Carcinogenesis Research Information System (CCRIS), 2018)", "system": "CCRIS mutagenicity, Ames/micronucleus/aberration tests", "test": "CCRIS mutagenicity studies", "key": {"[1]": {"conditions": "Test System: AMES SALMONELLA TYPHIMURIUM, Strain/Indicator: TA98, Metabolic Activation: NONE, Method: PREINCUBATION"}, "[2]": {"conditions": "Test System: AMES SALMONELLA TYPHIMURIUM, Strain/Indicator: TA98, Metabolic Activation: S-9, Method: PREINCUBATION"}, "[3]": {"conditions": "Test System: AMES SALMONELLA TYPHIMURIUM, Strain/Indicator: TA100, Metabolic Activation: NONE, Method: PREINCUBATION"}, "[4]": {"conditions": "Test System: AMES SALMONELLA TYPHIMURIUM, Strain/Indicator: TA100, Metabolic Activation: S-9, Method: PREINCUBATION"}, "[5]": {"conditions": "Test System: AMES SALMONELLA TYPHIMURIUM, Strain/Indicator: TA1535, Metabolic Activation: NONE, Method: PREINCUBATION"}, "[6]": {"conditions": "Test System: AMES SALMONELLA TYPHIMURIUM, Strain/Indicator: TA1537, Metabolic Activation: NONE, Method: PREINCUBATION"}}, "note": "Calls of active or inactive are those of the source. The rule behind the calls is not given here.", "data": [{"smiles": "CCOCn1cc(F)c(=O)n(C(=O)c2cccc(C(=O)Oc3nc(OC(=O)c4ccccc4)ccc3C#N)c2)c1=O", "values": [{"measurement": "mutagenic call", "setting": "[1]", "value": "inactive; negative"}, {"measurement": "mutagenic call", "setting": "[2]", "value": "inactive; negative"}, {"measurement": "mutagenic call", "setting": "[3]", "value": "inactive; negative"}, {"measurement": "mutagenic call", "setting": "[4]", "value": "inactive; negative"}, {"measurement": "mutagenic call", "setting": "[5]", "value": "inactive; negative"}, {"measurement": "mutagenic call", "setting": "Test System: AMES SALMONELLA TYPHIMURIUM, Strain/Indicator: TA1535, Metabolic Activation: S-9, Method: PREINCUBATION", "value": "inactive; negative"}, {"measurement": "mutagenic call", "setting": "[6]", "value": "inactive; negative"}, {"measurement": "mutagenic call", "setting": "Test System: AMES SALMONELLA TYPHIMURIUM, Strain/Indicator: TA1537, Metabolic Activation: S-9, Method: PREINCUBATION", "value": "inactive; negative"}, {"measurement": "mutagenic call", "setting": "Test System: E. COLI, Strain/Indicator: WP2 UVRA, Metabolic Activation: NONE, Method: PREINCUBATION", "value": "inactive; negative"}, {"measurement": "mutagenic call", "setting": "Test System: E. COLI, Strain/Indicator: WP2 UVRA, Metabolic Activation: S-9, Method: PREINCUBATION", "value": "inactive; negative"}]}, {"smiles": "Cc1cc2c(O)cccc2c2cc3c(cc12)C=C[C@H](O)[C@H]3O", "values": [{"measurement": "mutagenic call", "setting": "Test System: AMES SALMONELLA TYPHIMURIUM, Strain/Indicator: TA100, Metabolic Activation: RAT, LIVER, S-9, AROCLOR 1254, Method: PREINCUBATION", "value": "active; positive"}]}, {"smiles": "Cc1cnc2cc(CO)c3c(nc(N)n3C)c2n1", "values": [{"measurement": "mutagenic call", "setting": "Test System: AMES SALMONELLA TYPHIMURIUM, Strain/Indicator: TA98, Metabolic Activation: S-9", "value": "active; positive"}, {"measurement": "mutagenic call", "setting": "[2]", "value": "active; positive"}, {"measurement": "mutagenic call", "setting": "[4]", "value": "active; positive"}, {"measurement": "mutagenic call", "setting": "Test System: AMES SALMONELLA TYPHIMURIUM, Strain/Indicator: YG1024, Metabolic Activation: S-9", "value": "active; positive"}, {"measurement": "mutagenic call", "setting": "Test System: AMES SALMONELLA TYPHIMURIUM, Strain/Indicator: YG1024, Metabolic Activation: S-9, Method: PREINCUBATION", "value": "active; positive"}]}, {"smiles": "CC(=NC#N)N(C)Cc1ccc(Cl)nc1", "values": [{"measurement": "mutagenic call", "setting": "End Point: In vitro chromosomal aberrations, Test System: Human peripheral lymphocytes, Metabolic Activation: None", "value": "active; positive (structural changes), 20% purity (commercial product mosetam 20 sp)."}, {"measurement": "mutagenic call", "setting": "End Point: In vitro micronucleus, Test System: Human peripheral lymphocytes, Metabolic Activation: None", "value": "active; positive, 20% purity (commercial product mosetam 20 sp)."}, {"measurement": "mutagenic call", "setting": "End Point: In vivo micronucleus, Test System: Bone marrow polychromatic erythrocytes, Species: Mouse, Strain/Sex: CD-1/Female, Route: Gavage", "value": "inactive; negative"}, {"measurement": "mutagenic call", "setting": "End Point: In vivo micronucleus, Test System: Bone marrow polychromatic erythrocytes, Species: Mouse, Strain/Sex: CD-1/Male, Route: Gavage", "value": "inactive; negative"}, {"measurement": "mutagenic call", "setting": "Test System: Ames Salmonella typhimurium, Strain/Indicator: TA98, Metabolic Activation: None, Method: Preincubation", "value": "inactive; negative"}, {"measurement": "mutagenic call", "setting": "Test System: Ames Salmonella typhimurium, Strain/Indicator: TA98, Metabolic Activation: Rodent, Liver, S-9, Method: Preincubation", "value": "inactive; negative"}, {"measurement": "mutagenic call", "setting": "Test System: Ames Salmonella typhimurium, Strain/Indicator: TA100, Metabolic Activation: None, Method: Preincubation", "value": "inactive; negative"}, {"measurement": "mutagenic call", "setting": "Test System: Ames Salmonella typhimurium, Strain/Indicator: TA100, Metabolic Activation: Rodent, Liver, S-9, Method: Preincubation", "value": "inactive; negative"}, {"measurement": "mutagenic call", "setting": "Test System: Ames Salmonella typhimurium, Strain/Indicator: TA1535, Metabolic Activation: None, Method: Preincubation", "value": "inactive; negative"}, {"measurement": "mutagenic call", "setting": "Test System: Ames Salmonella typhimurium, Strain/Indicator: TA1535, Metabolic Activation: Rodent, Liver, S-9, Method: Preincubation", "value": "inactive; negative"}, {"measurement": "mutagenic call", "setting": "Test System: Ames Salmonella typhimurium, Strain/Indicator: TA1537, Metabolic Activation: None, Method: Preincubation", "value": "inactive; negative"}, {"measurement": "mutagenic call", "setting": "Test System: Ames Salmonella typhimurium, Strain/Indicator: TA1537, Metabolic Activation: Rodent, Liver, S-9, Method: Preincubation", "value": "inactive; negative"}, {"measurement": "mutagenic call", "setting": "Test System: E. coli, Strain/Indicator: WP2 uvrA, Metabolic Activation: None, Method: Preincubation", "value": "inactive; negative"}, {"measurement": "mutagenic call", "setting": "Test System: E. coli, Strain/Indicator: WP2 uvrA, Metabolic Activation: Rodent, Liver, S-9, Method: Preincubation", "value": "inactive; negative"}, {"measurement": "mutagenic call", "setting": "Test System: UDS F344 male rat hepatocytes, Strain/Indicator: THY INCORP, Method: Autoradiography", "value": "inactive; negative"}]}, {"smiles": "CCCCCCCCCCCCCCC1CO1", "note": "(configuration not stated)", "values": [{"measurement": "mutagenic call", "setting": "Test System: AMES SALMONELLA TYPHIMURIUM, Strain/Indicator: TA98, Metabolic Activation: HAMSTER, LIVER, S-9, AROCLOR 1254 (10%), Method: PREINCUBATION", "value": "inactive; negative"}, {"measurement": "mutagenic call", "setting": "[1]", "value": "inactive; negative"}, {"measurement": "mutagenic call", "setting": "Test System: AMES SALMONELLA TYPHIMURIUM, Strain/Indicator: TA98, Metabolic Activation: RAT, LIVER, S-9, AROCLOR 1254 (10%), Method: PREINCUBATION", "value": "inactive; negative"}, {"measurement": "mutagenic call", "setting": "Test System: AMES SALMONELLA TYPHIMURIUM, Strain/Indicator: TA100, Metabolic Activation: HAMSTER, LIVER, S-9, AROCLOR 1254 (10%), Method: PREINCUBATION", "value": "inactive; negative"}, {"measurement": "mutagenic call", "setting": "[3]", "value": "inactive; negative"}, {"measurement": "mutagenic call", "setting": "Test System: AMES SALMONELLA TYPHIMURIUM, Strain/Indicator: TA100, Metabolic Activation: RAT, LIVER, S-9, AROCLOR 1254 (10%), Method: PREINCUBATION", "value": "inactive; negative"}, {"measurement": "mutagenic call", "setting": "Test System: AMES SALMONELLA TYPHIMURIUM, Strain/Indicator: TA1535, Metabolic Activation: HAMSTER, LIVER, S-9, AROCLOR 1254 (10%), Method: PREINCUBATION", "value": "inactive; negative"}, {"measurement": "mutagenic call", "setting": "[5]", "value": "inactive; negative"}, {"measurement": "mutagenic call", "setting": "Test System: AMES SALMONELLA TYPHIMURIUM, Strain/Indicator: TA1535, Metabolic Activation: RAT, LIVER, S-9, AROCLOR 1254 (10%), Method: PREINCUBATION", "value": "inactive; negative"}, {"measurement": "mutagenic call", "setting": "Test System: AMES SALMONELLA TYPHIMURIUM, Strain/Indicator: TA1537, Metabolic Activation: HAMSTER, LIVER, S-9, AROCLOR 1254 (10%), Method: PREINCUBATION", "value": "inactive; negative"}, {"measurement": "mutagenic call", "setting": "[6]", "value": "inactive; negative"}, {"measurement": "mutagenic call", "setting": "Test System: AMES SALMONELLA TYPHIMURIUM, Strain/Indicator: TA1537, Metabolic Activation: RAT, LIVER, S-9, AROCLOR 1254 (10%), Method: PREINCUBATION", "value": "inactive; negative"}]}, {"smiles": "CC(=O)OCCN(CCC#N)c1ccc(N=Nc2ccc([N+](=O)[O-])cc2)cc1", "values": [{"measurement": "mutagenic call", "setting": "End Point: IN VITRO CHROMOSOMAL ABERRATIONS, Test System: CHL CELLS, Metabolic Activation: RAT, LIVER, S-9, SODIUM PHENOBARBITAL AND 5,6-BENZOFLAVONE", "value": "inactive; negative"}]}, {"smiles": "CCNc1nc(Cl)nc(NC(C)(C)C#N)n1", "values": [{"measurement": "mutagenic call", "setting": "End Point: In vitro chromosomal aberrations, Test System: Human lymphocytes, Metabolic Activation: None", "value": "inactive; negative for aberrations but cell cycle delay at 250 and 350 ug/ml doses"}, {"measurement": "mutagenic call", "setting": "End Point: In vitro chromosomal aberrations, Test System: Human lymphocytes, Metabolic Activation: Rat, liver, S-9, Aroclor 1254", "value": "inactive; negative"}, {"measurement": "mutagenic call", "setting": "Test System: Ames Salmonella typhimurium, Strain/Indicator: TA97a, Metabolic Activation: None, Method: Plate incorporation", "value": "inactive; negative, cytotoxicity at highest dose."}, {"measurement": "mutagenic call", "setting": "Test System: Ames Salmonella typhimurium, Strain/Indicator: TA97a, Metabolic Activation: Rat, liver, S-9, Aroclor 1254, Method: Plate incorporation", "value": "inactive; negative, cytotoxicity at highest dose."}, {"measurement": "mutagenic call", "setting": "Test System: Ames Salmonella typhimurium, Strain/Indicator: TA98, Metabolic Activation: None, Method: Plate incorporation", "value": "inactive; negative, cytotoxicity at highest dose."}, {"measurement": "mutagenic call", "setting": "Test System: Ames Salmonella typhimurium, Strain/Indicator: TA98, Metabolic Activation: Rat, liver, S-9, Aroclor 1254, Method: Plate incorporation", "value": "inactive; negative, cytotoxicity at highest dose."}, {"measurement": "mutagenic call", "setting": "Test System: Ames Salmonella typhimurium, Strain/Indicator: TA100, Metabolic Activation: None, Method: Plate incorporation", "value": "inactive; negative, cytotoxicity at highest dose."}, {"measurement": "mutagenic call", "setting": "Test System: Ames Salmonella typhimurium, Strain/Indicator: TA100, Metabolic Activation: Rat, liver, S-9, Aroclor 1254, Method: Plate incorporation", "value": "inactive; negative, cytotoxicity at highest dose."}, {"measurement": "mutagenic call", "setting": "Test System: Ames Salmonella typhimurium, Strain/Indicator: TA1535, Metabolic Activation: None, Method: Plate incorporation", "value": "inactive; negative, cytotoxicity at highest dose."}, {"measurement": "mutagenic call", "setting": "Test System: Ames Salmonella typhimurium, Strain/Indicator: TA1535, Metabolic Activation: Rat, liver, S-9, Aroclor 1254, Method: Plate incorporation", "value": "inactive; negative, cytotoxicity at highest dose."}, {"measurement": "mutagenic call", "setting": "Test System: UDS HUMAN PERIPHERAL BLOOD LYMPHOCYTES, Strain/Indicator: THY INCORP, Metabolic Activation: NONE, Method: LIQUID SCINTILLATION", "value": "inactive; negative"}, {"measurement": "mutagenic call", "setting": "Test System: UDS HUMAN PERIPHERAL BLOOD LYMPHOCYTES, Strain/Indicator: THY INCORP, Metabolic Activation: RAT, LIVER, S-9, PHENOBARBITAL AND BETA-NAPHTHOFLAVONE, Method: LIQUID SCINTILLATION", "value": "inactive; negative"}, {"measurement": "mutagenic call", "setting": "Test System: UDS rat primary hepatocytes, Strain/Indicator: Thymidine incorporation, Metabolic Activation: None, Method: Autoradiography", "value": "active; positive at >/= 1 um"}]}]}
